Test results reported in patent US20220409578A1, “FUNCTIONALIZED 1,3-BENZENE DIOLS AND THEIR METHOD OF USE FOR THE TREATMENT OF RADIATION DERMATITIS AND OTHER SKIN DISORDERS” (KANNALIFE SCIENCES, INC., priority 2019, published 2022).

Key:
Format in all cases: cell-based
TNFα = TNFα release from UV-B irradiated human epidermal keratinocytes (ELISA); conditions: Keratinocyte, light or radiation study, UV-B 25 mJ/cm^2 (280-312 nm), read-out: IC50 of TNFα inhibition
Experimental: (§1) Normal human epidermal keratinocytes cultures were utilized to measure the release of proinflammatory cytokines and chemokines. Primary epidermal keratinocytes from neonatal donors were used from human origin and purchased from Thermo-Fisher (Cat No. A13401). […] Cells were cultured until the second passage and then acclimated for 48 hours more before UV-B irradiation. Dosing procedures and cell groups were identified using appropriate cell culture 24-well plates. The cell culture incubator was set at 5% v/v CO2 with temperature and humidity maintained at 36-38° C. and 40-70%, respectively. The test and control substances were administered to HKGS-depleted medium in triplicates. A fixed 5 μL/well from 100× stock dose volume was administered to 500 μL of media to each cell culture well on Day 3 and pre-incubated for 6 hours and then post-UVB incubated for 18 hours. […] Media supernatants were harvested and analyzed for TNFα and IL-1β levels by ELISA method. Cytokine levels were assessed from cell culture media supernatants using BD Biosciences OptEIA™ Human TNFα (Cat. No. 555212) and IL-1β (Cat. No. 557953) and ELISA set kit and Reagent Set B (Cat. No. 550534) according the manufacture's specifications. Absorbance was measured at 450 nm using a plate reader and calculated cytokine levels were determined from a standard curve.

IL-1β = IL-1β release from UV-B irradiated human epidermal keratinocytes (ELISA); conditions: Keratinocyte, light or radiation study; UV-B 25 mJ/cm^2, human epidermal keratinocytes; read-out: IC50 of interleukin-1β inhibition
Experimental: as §1

[1] = test system: human epidermal keratinocytes; conditions: 24 h
Experimental: Normal human epidermal keratinocytes cultures were utilized to measure the release of proinflammatory cytokines and chemokines. Primary epidermal keratinocytes from neonatal donors were used from human origin and purchased from Thermo-Fisher (Cat No. A13401). […] Cells were cultured until the second passage and then acclimated for 48 hours more before UV-B irradiation. Dosing procedures and cell groups were identified using appropriate cell culture 24-well plates. The cell culture incubator was set at 5% v/v CO2 with temperature and humidity maintained at 36-38° C. and 40-70%, respectively. The test and control substances were administered to HKGS-depleted medium in triplicates. A fixed 5 μL/well from 100× stock dose volume was administered to 500 μL of media to each cell culture well on Day 3 and pre-incubated for 6 hours and then post-UVB incubated for 18 hours. The same procedure was utilized to determine non-toxic concentrations of 1,3-benzene diols after 24 hours of treatment. Cell Viability assays were conducted using MTS reduction assays (Promega) diluted 1:5 in DMEM+10% FBS media as specified by the manufacturer. Absorbance was measured at 490 nm using plate reader and cell viability was calculated as a percent of control. This assay was done along with all culture systems that were utilized to study cytokine release. […]

[2] = test system: human 3D cornea-like EPIOCULAR; assay: Eye irritation, EPIOCULAR reconstructed cornea-like model, OECD 492 (MTT); conditions: human, 30 min
Experimental: Ocular irritancy: The purpose of this study was to evaluate any potential ocular irritation activity of KLS-13022 formulations compared to vehicle-only treated tissues in vitro on human 3D cornea-like EPIOCULAR by topical application according to OECD 492 protocol. Test formulations of KLS-13022 up to 3% w/v in 60:40 ethanol:water vehicle were prepared fresh before use. EPIOCULAR tissues were acclimated before treatments for 24 hours and later treated topically for 30 minutes with KLS-13022 (0.01, 0.1, 0.3 1, 3% w/v). Methyl acetate was used as positive eye irritant control. Tissue viability levels were measured by MTT reduction assay method after material treatments. The levels of tissue viability after each material treatment was compared to vehicle control group to determine any potential ocular irritation activity.
Average levels of tissue viability were calculated for each treatment group. According to OECD 492 protocol, predicted positive eye irritation activities were determined when obtaining <60% tissue viability. […] Primary cornea-like inserts were used from human origin and purchased from MatTek (Ashland, Mass.). […] Tissues were cultured with standard conditions (37° C., 95% v/v air, 5% v/v CO2) and acclimated for 18+3 hours before dosing procedures.

C=C(C)[C@@H]1CCC(C)=C[C@H]1c1c(O)cc(CC2CN(C(=O)OCC)C2)cc1O [KLS-13022, ethyl 3-(3,5-dihydroxy-4-((1R,6R)-3-methyl-6-(prop-1-en-2-yl)cyclohex-2-enyl)benzyl)azetidine-1-carboxylate]
IC50 (TNFα): 380 nM
IC50 (IL-1β): 380 nM
non-toxic concentration range [1]: ≤ 10 µM
tissue viability [2]: ≥ 60%
